In patent US12617779B2, “Self degradation-type CDK9 inhibitor prodrug and liposome encapsulating same” (Sumitomo Pharma Co., Ltd., priority 2021, dated 2026):

Assay: Evaluation of conversion rate to active form in buffer solution (Experimental Example 1)
Type: physicochemical
Details: for Production rate of Alvocidib / Residual rate: 25 umol/L in buffer solution; for Stability in buffer solution at pH 5: pH 5, 37° C., up to 2 or 3 hours; for Conversion to Alvocidib at pH 7.4: pH 7.4, 37° C., up to 3 hours
Outline: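 Prodrugs were held at 25 umol/L and 37° C in 50 mM citrate (pH 5.0, 5.5) or 50 mM phosphate (pH 6.0–7.4) buffer. Parent remaining and Alvocidib formed were quantified by HPLC at 0, 0.5, 1, 2 and 3 hours.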

CN1CC[C@H](c2c(OC(=O)N(C)C[C@H]3CCCCN3)cc(O)c3c(=O)cc(-c4ccccc4Cl)oc23)[C@H](O)C1 [Example 4, 2-(2-chlorophenyl)-5-hydroxy-8-[(3S,4R)-3-hydroxy-1-methylpiperidin-4-yl]-4-oxo-4H-1-benzopyran-7-yl methyl{[(2R)-piperidin-2-yl]methyl}carbamate]
Production rate of Alvocidib (pH5.0, 0 hr, 37° C.): 0.5% | Residual rate (pH5.0, 0 hr, 37° C.): 99.3% | Stability in buffer solution at pH 5: stable | Production rate of Alvocidib (pH5.0, 0.5 hr, 37° C.): 0.8% | Residual rate (pH5.0, 0.5 hr, 37° C.): 98.5% | Production rate of Alvocidib (pH5.0, 1 hr, 37° C.): 1.1% | Residual rate (pH5.0, 1 hr, 37° C.): 98.0% | Production rate of Alvocidib (pH5.0, 2 hr, 37° C.): 1.7% | Residual rate (pH5.0, 2 hr, 37° C.): 96.8% | Production rate of Alvocidib (pH5.0, 3 hr, 37° C.): 2.3% | Residual rate (pH5.0, 3 hr, 37° C.): 95.6% | Production rate of Alvocidib (pH5.5, 0 hr, 37° C.): 0.4% | Residual rate (pH5.5, 0 hr, 37° C.): 99.2% | Production rate of Alvocidib (pH5.5, 0.5 hr, 37° C.): 1.5% | Residual rate (pH5.5, 0.5 hr, 37° C.): 97.1% | Production rate of Alvocidib (pH5.5, 1 hr, 37° C.): 2.2% | Residual rate (pH5.5, 1 hr, 37° C.): 95.5% | Production rate of Alvocidib (pH5.5, 2 hr, 37° C.): 4.0% | Residual rate (pH5.5, 2 hr, 37° C.): 91.4% | Production rate of Alvocidib (pH5.5, 3 hr, 37° C.): 5.5% | Residual rate (pH5.5, 3 hr, 37° C.): 87.9% | Production rate of Alvocidib (pH6.0, 0 hr, 37° C.): 0.4% | Residual rate (pH6.0, 0 hr, 37° C.): 99.3% | Production rate of Alvocidib (pH6.0, 0.5 hr, 37° C.): 3.7% | Residual rate (pH6.0, 0.5 hr, 37° C.): 91.9% | Production rate of Alvocidib (pH6.0, 1 hr, 37° C.): 6.4% | Residual rate (pH6.0, 1 hr, 37° C.): 85.6% | Production rate of Alvocidib (pH6.0, 2 hr, 37° C.): 12.0% | Residual rate (pH6.0, 2 hr, 37° C.): 72.4% | Production rate of Alvocidib (pH6.0, 3 hr, 37° C.): 16.6% | Residual rate (pH6.0, 3 hr, 37° C.): 61.7% | Production rate of Alvocidib (pH6.5, 0 hr, 37° C.): 0.5% | Residual rate (pH6.5, 0 hr, 37° C.): 99.3% | Production rate of Alvocidib (pH6.5, 0.5 hr, 37° C.): 9.0% | Residual rate (pH6.5, 0.5 hr, 37° C.): 79.5% | Production rate of Alvocidib (pH6.5, 1 hr, 37° C.): 15.1% | Residual rate (pH6.5, 1 hr, 37° C.): 65.1% | Production rate of Alvocidib (pH6.5, 2 hr, 37° C.): 26.1% | Residual rate (pH6.5, 2 hr, 37° C.): 39.7% | Production rate of Alvocidib (pH6.5, 3 hr, 37° C.): 32.7% | Residual rate (pH6.5, 3 hr, 37° C.): 24.9% | Production rate of Alvocidib (pH7.0, 0 hr, 37° C.): 0.6% | Residual rate (pH7.0, 0 hr, 37° C.): 98.8% | Production rate of Alvocidib (pH7.0, 0.5 hr, 37° C.): 21.3% | Residual rate (pH7.0, 0.5 hr, 37° C.): 51.3% | Production rate of Alvocidib (pH7.0, 1 hr, 37° C.): 31.6% | Residual rate (pH7.0, 1 hr, 37° C.): 27.7% | Production rate of Alvocidib (pH7.0, 2 hr, 37° C.): 41.1% | Residual rate (pH7.0, 2 hr, 37° C.): 0.0% | Production rate of Alvocidib (pH7.0, 3 hr, 37° C.): 43.3% | Residual rate (pH7.0, 3 hr, 37° C.): 0.0% | Production rate of Alvocidib (pH7.4, 0 hr, 37° C.): 0.8% | Residual rate (pH7.4, 0 hr, 37° C.): 98.4% | Conversion to Alvocidib at pH 7.4: rapidly converted to Alvocidib | Production rate of Alvocidib (pH7.4, 0.5 hr, 37° C.): 34.8% | Residual rate (pH7.4, 0.5 hr, 37° C.): 21.5% | Production rate of Alvocidib (pH7.4, 1 hr, 37° C.): 42.0% | Residual rate (pH7.4, 1 hr, 37° C.): 0.0% | Production rate of Alvocidib (pH7.4, 2 hr, 37° C.): 44.6% | Residual rate (pH7.4, 2 hr, 37° C.): 0.0% | Production rate of Alvocidib (pH7.4, 3 hr, 37° C.): 44.6% | Residual rate (pH7.4, 3 hr, 37° C.): 0.0%

CCCN(C[C@@H]1CCCCN1)C(=O)Oc1cc(O)c2c(=O)cc(-c3ccccc3Cl)oc2c1[C@H]1CCN(C)C[C@H]1O [Example 5, 2-(2-chlorophenyl)-5-hydroxy-8-[(3S,4R)-3-hydroxy-1-methylpiperidin-4-yl]-4-oxo-4H-1-benzopyran-7-yl {[(2S)-piperidin-2-yl]methyl}propylcarbamate]
Efficiency of conversion to Alvocidib (buffer solution, 37° C.): higher efficiency | Production rate of Alvocidib (pH5.0, 0 hr, 37° C.): 0.0% | Residual rate (pH5.0, 0 hr, 37° C.): 98.7% | Stability in buffer solution at pH 5: stable | Production rate of Alvocidib (pH5.0, 0.5 hr, 37° C.): 0.6% | Residual rate (pH5.0, 0.5 hr, 37° C.): 98.3% | Production rate of Alvocidib (pH5.0, 1 hr, 37° C.): 1.1% | Residual rate (pH5.0, 1 hr, 37° C.): 97.8% | Production rate of Alvocidib (pH5.0, 2 hr, 37° C.): 2.3% | Residual rate (pH5.0, 2 hr, 37° C.): 96.7% | Production rate of Alvocidib (pH5.0, 3 hr, 37° C.): 3.4% | Residual rate (pH5.0, 3 hr, 37° C.): 95.8% | Production rate of Alvocidib (pH5.5, 0 hr, 37° C.): 0.0% | Residual rate (pH5.5, 0 hr, 37° C.): 98.3% | Production rate of Alvocidib (pH5.5, 0.5 hr, 37° C.): 1.2% | Residual rate (pH5.5, 0.5 hr, 37° C.): 97.2% | Production rate of Alvocidib (pH5.5, 1 hr, 37° C.): 2.1% | Residual rate (pH5.5, 1 hr, 37° C.): 96.4% | Production rate of Alvocidib (pH5.5, 2 hr, 37° C.): 3.9% | Residual rate (pH5.5, 2 hr, 37° C.): 94.5% | Production rate of Alvocidib (pH5.5, 3 hr, 37° C.): 5.7% | Residual rate (pH5.5, 3 hr, 37° C.): 92.7% | Production rate of Alvocidib (pH6.0, 0 hr, 37° C.): 0.0% | Residual rate (pH6.0, 0 hr, 37° C.): 98.7% | Production rate of Alvocidib (pH6.0, 0.5 hr, 37° C.): 3.6% | Residual rate (pH6.0, 0.5 hr, 37° C.): 95.2% | Production rate of Alvocidib (pH6.0, 1 hr, 37° C.): 6.6% | Residual rate (pH6.0, 1 hr, 37° C.): 92.2% | Production rate of Alvocidib (pH6.0, 2 hr, 37° C.): 12.8% | Residual rate (pH6.0, 2 hr, 37° C.): 85.7% | Production rate of Alvocidib (pH6.0, 3 hr, 37° C.): 18.6% | Residual rate (pH6.0, 3 hr, 37° C.): 79.8% | Production rate of Alvocidib (pH6.5, 0 hr, 37° C.): 0.0% | Residual rate (pH6.5, 0 hr, 37° C.): 98.4% | Production rate of Alvocidib (pH6.5, 0.5 hr, 37° C.): 9.5% | Residual rate (pH6.5, 0.5 hr, 37° C.): 88.9% | Production rate of Alvocidib (pH6.5, 1 hr, 37° C.): 17.1% | Residual rate (pH6.5, 1 hr, 37° C.): 80.9% | Production rate of Alvocidib (pH6.5, 2 hr, 37° C.): 32.1% | Residual rate (pH6.5, 2 hr, 37° C.): 65.5% | Production rate of Alvocidib (pH6.5, 3 hr, 37° C.): 44.2% | Residual rate (pH6.5, 3 hr, 37° C.): 52.6% | Production rate of Alvocidib (pH7.0, 0 hr, 37° C.): 0.0% | Residual rate (pH7.0, 0 hr, 37° C.): 98.4% | Production rate of Alvocidib (pH7.0, 0.5 hr, 37° C.): 25.0% | Residual rate (pH7.0, 0.5 hr, 37° C.): 72.7% | Production rate of Alvocidib (pH7.0, 1 hr, 37° C.): 41.9% | Residual rate (pH7.0, 1 hr, 37° C.): 55.0% | Production rate of Alvocidib (pH7.0, 2 hr, 37° C.): 66.7% | Residual rate (pH7.0, 2 hr, 37° C.): 28.7% | Production rate of Alvocidib (pH7.0, 3 hr, 37° C.): 79.9% | Residual rate (pH7.0, 3 hr, 37° C.): 15.0% | Production rate of Alvocidib (pH7.4, 0 hr, 37° C.): 0.0% | Residual rate (pH7.4, 0 hr, 37° C.): 98.7% | Conversion to Alvocidib at pH 7.4: rapidly converted to Alvocidib | Production rate of Alvocidib (pH7.4, 0.5 hr, 37° C.): 47.5% | Residual rate (pH7.4, 0.5 hr, 37° C.): 49.4% | Production rate of Alvocidib (pH7.4, 1 hr, 37° C.): 69.8% | Residual rate (pH7.4, 1 hr, 37° C.): 25.9% | Production rate of Alvocidib (pH7.4, 2 hr, 37° C.): 88.9% | Residual rate (pH7.4, 2 hr, 37° C.): 5.9% | Production rate of Alvocidib (pH7.4, 3 hr, 37° C.): 93.2% | Residual rate (pH7.4, 3 hr, 37° C.): 1.5%
